Reference: patent publication US20230022705A1, “Topical Delivery System Containing Cellulose Nanofibers” (ELC Management LLC, priority 2019, published 2023)
Where two headings read alike, the source gives them in different places. Values belong to the molecule of their own block, whether it stands above or below them.

Test system: MatTek 300 skin (a skin model constructed from live cells)
Test: Penetration study using MatTek skin, formulation with vs without cellulose nanofibers, UPLC analysis
Format: in vitro ADME
Method: A testing formulation with and without nanocellulose and various skin care actives was prepared. The formulation was prepared by mixing the Phase I components until all of the solids were dissolved (e.g., about 10-15 min). The Phase 2 components were added to the Phase 1 components and mixed until lump free (e.g., about 10 min). The Phase 3 components were pre-mixed until lump free and slowly added to the initial mixture and mixed until uniform (e.g., about 30 min). The Phase 4 components were mixed until uniform and slowly added to the initial mixture and mixed to uniformity (e.g., about 15-20 min). The Phase 5 components were premixed and then added to the mixture and mixed until uniform (e.g., about 15-20 min). The Phase 6 components were added to the mixture under Silverson to adjust the pH to about 5.5 to 6.5 to increase the stability of the AA2G and mixed until lump free (e.g., about 15-20 min). A penetration study was then performed using the base formula without nanocellulose as a control. […] In a 6-well plate, MatTek 300 skin (a skin model constructed from live cells, obtained from MatTek) was placed in the well with 2.00 mL of incubation medium (also provided by MatTek). The medium was removed, and 2.0 mL of phosphate buffer saline/propandiol (PBS/PPD) 1:1 mixture was added. The PBS/PPD mixture was then removed. This washing process was repeated twice. Then 2.0 mL of the PBS/PPD mixture was added as the collection phase. To the top of each skin, 400 μl of a sample was loaded. The skin was then incubated at 37° C. for 72 hours. Finally, the PBS/PPD collection phase was filtered through 0.45 μm PTFE syringe filter into high performance liquid chromatography (HPLC) vials. Waters ACQUITY H ultra-performance liquid chromatography (UPLC) was used to analyze the collected samples from the penetration study.

SMILES: COc1ccc(CCCc2ccc(O)cc2O)c(OC)c1C [UP302]
penetration efficacy, formulation with cellulose nanofibers vs without (in words) (MatTek 300 skin, 37° C., 72 hours, PBS/PPD collection phase): modulated, reduced, and limited

SMILES: O=C(c1ccccc1)c1ccccc1 [benzophenone]
penetration efficacy, composition with nanocellulose vs without (in words) (benzophenone 4% (w/w of the total composition), sunscreen formulations): directionally reduced

Continued, values first:

penetration efficacy, formulation with cellulose nanofibers vs without (in words): significantly enhanced
SMILES: O=C1O[C@H]([C@@H](O)CO)C(O)=C1O[C@H]1O[C@H](CO)[C@@H](O)[C@H](O)[C@H]1O [AA2G, ascorbic acid 2-glucoside]

penetration within the skin, composition with nanocellulose vs without (in words): reduced
rate of release from composition with nanocellulose (in words): slower rate of release
SMILES: CC1=C(/C=C/C(C)=C/C=C/C(C)=C/CO)C(C)(C)CCC1 [Retinol, reference compound]

penetration efficacy, composition with nanocellulose vs without (in words): not increased
SMILES: OCCOc1ccccc1 [phenoxyethanol]
